# Results as given in US20130158122A1, “EP2 Agonist from Non-Prostanoid Structures Designed as PGE2 Antagonists” (ALLERGAN, INC., priority 2010, published 2013).
# System: Beagle dogs
# Test: Intraocular pressure studies in dogs (applanation pneumatonometry)
# Type: in vivo
# Details: conscious Beagle dogs, topical to one eye, approx. 35 μl, IOP before and at 2, 4, 6 hours on each day of 5 day study; vehicle in other eye
# Method: Measurement of intraocular pressure studies in dogs will involve applanation pneumatonometry performed in Beagle dogs of both sexes. The animals will remain conscious throughout the study and will be gently restrained by hand. Compound 4-{[5-chloro-2-(4-chloro-benzyloxy)-benzoylamino]-methyl}-benzoic acid will be administered topically to one eye using a dropper bottle to deliver approximately a 35 μl volume, the other eye received vehicle (1% polysorbate 80 in 5 mM Tris HCl) as a control. Proparacaine at 0.25% was used for corneal anesthesia during tonometry. Intraocular pressure will be determined just before drug administration and at 2, 4, 6 hours thereafter on each day of the 5 day study. Measurement of ocular surface hyperemia will be performed immediately before each of the intraocular pressure readings. Ocular surface hyperemia grading will be semi-quantitative and assessed according to a 5 point scoring scale used for clinical evaluations: 0=none; 0.5=trace; 1=mild; 2=moderate; and 3=severe.
structure (smiles),measurement,value
O=C(O)c1ccc(CNC(=O)c2cc(Cl)ccc2OCc2ccc(Cl)cc2)cc1 [4-{[5-chloro-2-(4-chloro-benzyloxy)-benzoylamino]-methyl}-benzoic acid],intraocular pressure,significantly reduce intraocular pressure
